Laboratory results: article PMC3433420 (PLoS ONE, 2012)
Residues, ends and D or L forms follow the SMILES beside them.

Columns and labels:
SH2 and PTB domains [1] = target: T1, SH2 and PTB domains (Homo sapiens, UniProt P19174); assay: In-house protein microarrays (with or without 5 mM DTT), protein named per line; type: binding
T1 construct: thioredoxin; made in house; host or cells: BL21(DE3)pLysS E. coli
T1 sequence (P19174 1-1290): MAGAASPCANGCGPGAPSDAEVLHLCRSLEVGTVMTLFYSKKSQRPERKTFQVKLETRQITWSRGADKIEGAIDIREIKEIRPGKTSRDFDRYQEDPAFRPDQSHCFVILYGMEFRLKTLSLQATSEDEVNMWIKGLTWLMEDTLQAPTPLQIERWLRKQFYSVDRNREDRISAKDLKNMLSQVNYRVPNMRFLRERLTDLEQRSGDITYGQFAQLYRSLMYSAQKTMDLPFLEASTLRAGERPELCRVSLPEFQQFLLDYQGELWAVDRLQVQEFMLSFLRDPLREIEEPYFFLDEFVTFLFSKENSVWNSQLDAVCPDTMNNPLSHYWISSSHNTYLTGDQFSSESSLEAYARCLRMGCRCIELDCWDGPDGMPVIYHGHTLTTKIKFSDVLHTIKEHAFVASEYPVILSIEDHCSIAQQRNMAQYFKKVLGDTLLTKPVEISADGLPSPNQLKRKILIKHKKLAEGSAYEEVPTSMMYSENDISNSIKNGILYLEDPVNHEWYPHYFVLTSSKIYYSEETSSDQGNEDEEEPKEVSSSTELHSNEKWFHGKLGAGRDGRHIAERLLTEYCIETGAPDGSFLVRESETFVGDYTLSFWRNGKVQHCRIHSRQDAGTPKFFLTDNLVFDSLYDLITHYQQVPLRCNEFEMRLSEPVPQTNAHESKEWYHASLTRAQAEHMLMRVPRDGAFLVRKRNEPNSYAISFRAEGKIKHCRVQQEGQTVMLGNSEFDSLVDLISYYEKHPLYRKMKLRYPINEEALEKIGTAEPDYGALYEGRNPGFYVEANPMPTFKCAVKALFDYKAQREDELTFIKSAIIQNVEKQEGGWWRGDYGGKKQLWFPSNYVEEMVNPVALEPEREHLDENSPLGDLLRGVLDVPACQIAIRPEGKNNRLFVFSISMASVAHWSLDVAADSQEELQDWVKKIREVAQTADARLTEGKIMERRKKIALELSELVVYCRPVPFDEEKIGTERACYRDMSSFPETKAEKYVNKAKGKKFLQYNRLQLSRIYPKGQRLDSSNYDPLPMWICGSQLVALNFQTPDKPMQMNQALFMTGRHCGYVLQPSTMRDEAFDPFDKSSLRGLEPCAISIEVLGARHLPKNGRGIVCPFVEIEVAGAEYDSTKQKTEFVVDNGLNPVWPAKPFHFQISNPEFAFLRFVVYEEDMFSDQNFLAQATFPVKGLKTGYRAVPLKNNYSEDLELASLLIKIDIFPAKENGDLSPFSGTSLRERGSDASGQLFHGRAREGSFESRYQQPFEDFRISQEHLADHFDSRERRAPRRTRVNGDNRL
In short: (§1)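 KD values come from rhodamine fluorescence of duplicate spots after subtraction of a thioredoxin control. Domains were printed at ~40 µM on aldehyde slides, blocked 1 h at room temperature in pH 7.8 HEPES/KCl buffer with 5 mM DTT and 1% BSA, then peptide-probed.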

SH2 and PTB domains [2] = target: T2, SH2 and PTB domains (Homo sapiens, UniProt P52735); assay: as above; type: binding; conditions: protein VAV2
T2 construct: thioredoxin; made in house; host or cells: BL21(DE3)pLysS E. coli
T2 sequence (P52735 1-878): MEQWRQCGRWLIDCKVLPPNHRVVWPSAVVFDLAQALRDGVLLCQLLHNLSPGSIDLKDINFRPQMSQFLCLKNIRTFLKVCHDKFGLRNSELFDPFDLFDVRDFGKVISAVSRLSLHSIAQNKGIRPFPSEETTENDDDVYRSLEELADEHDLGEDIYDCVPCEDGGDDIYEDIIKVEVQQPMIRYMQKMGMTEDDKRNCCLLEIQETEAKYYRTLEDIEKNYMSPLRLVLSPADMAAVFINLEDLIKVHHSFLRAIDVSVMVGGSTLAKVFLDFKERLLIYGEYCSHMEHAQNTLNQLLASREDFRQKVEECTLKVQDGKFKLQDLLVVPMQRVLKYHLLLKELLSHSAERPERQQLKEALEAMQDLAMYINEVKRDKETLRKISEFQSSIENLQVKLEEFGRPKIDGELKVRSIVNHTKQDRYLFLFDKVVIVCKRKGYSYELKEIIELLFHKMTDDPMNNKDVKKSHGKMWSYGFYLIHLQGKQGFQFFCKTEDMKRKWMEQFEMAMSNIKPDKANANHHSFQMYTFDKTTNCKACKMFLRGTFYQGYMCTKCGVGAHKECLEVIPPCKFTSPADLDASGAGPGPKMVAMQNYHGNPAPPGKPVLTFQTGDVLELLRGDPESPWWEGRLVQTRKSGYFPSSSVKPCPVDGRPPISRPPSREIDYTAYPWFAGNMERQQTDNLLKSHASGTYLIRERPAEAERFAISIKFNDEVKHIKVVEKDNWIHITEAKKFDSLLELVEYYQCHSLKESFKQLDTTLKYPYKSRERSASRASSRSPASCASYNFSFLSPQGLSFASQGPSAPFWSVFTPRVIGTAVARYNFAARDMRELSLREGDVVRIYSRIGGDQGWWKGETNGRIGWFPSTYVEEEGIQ
In short: as §1

SMILES	Kd (SH2 and PTB domains [1]; protein PLCG1-C, PM assay replicate # 39307, array fabrication # 39286)	Kd (SH2 and PTB domains [2]; PM assay replicate # 39307, array fabrication # 39286)	Kd (SH2 and PTB domains [1]; protein PLCG1-C, PM assay replicate # 39336, array fabrication # 39329)	Kd (SH2 and PTB domains [1]; protein PLCG1-C, PM assay replicate # 39337, array fabrication # 39329)	Kd (SH2 and PTB domains [1]; protein PLCG1-NC, PM assay replicate # 39336, array fabrication # 39329)	Kd (SH2 and PTB domains [1]; protein PLCG1-NC, PM assay replicate # 39337, array fabrication # 39329)	Kd (SH2 and PTB domains [2]; PM assay replicate # 39336, array fabrication # 39329)	Kd (SH2 and PTB domains [2]; PM assay replicate # 39337, array fabrication # 39329)
CCN(CC)c1ccc2c(-c3ccc(C(=O)N[C@@H](CC(N)=O)C(=O)NCC(=O)N4CCC[C@H]4C(=O)N4CCC[C@H]4C(=O)N[C@@H](CCCCN)C(=O)N[C@@H](C)C(=O)N[C@@H](CCC(=O)O)C(=O)N[C@@H](CC(=O)O)C(=O)N[C@@H](CCC(=O)O)C(=O)N[C@@H](Cc4ccc(OP(=O)(O)O)cc4)C(=O)N[C@H](C(=O)N[C@@H](CC(N)=O)C(=O)N[C@@H](CCC(=O)O)C(=O)N4CCC[C@H]4C(=O)N[C@@H](CC(C)C)C(=O)N[C@@H](Cc4ccc(O)cc4)C(=O)N[C@@H](CC(C)C)C(=O)N[C@@H](CC(=O)O)C(=O)O)C(C)C)cc3C(=O)[O-])c3ccc(=[N+](CC)CC)cc-3oc2c1 [ErbB4 1202 (18-mer)] (HELM PEPTIDE1{[CCN(CC)c1ccc2c(-c3ccc(C(=O)[*:2])cc3C(=O)[O-])c3ccc(=[N+](CC)CC)cc-3oc2c1].N.G.P.P.K.A.E.D.E.[O=C([C@H](Cc1ccc(OP(=O)(O)O)cc1)N[*:1])[*:2]].V.N.E.P.L.Y.L.D}$$$$V2.0)	1260 nM	9500 nM						
CC(C)C[C@H](NC(=O)[C@@H]1CCCN1C(=O)[C@H](C)NC(=O)[C@@H](NC(=O)[C@H](Cc1ccc(OP(=O)(O)O)cc1)NC(=O)CNC(=O)[C@H](CC(=O)O)NC(=O)[C@@H](NC(=O)[C@@H](N)CCC(=O)O)[C@@H](C)O)C(C)C)C(=O)N[C@H](C(=O)N[C@@H](CS)C(=O)N[C@@H](CO)C(=O)N[C@@H](CC(=O)O)C(=O)O)[C@@H](C)O [ErbB2 pY1127]			4090 nM	110 nM	8820 nM	1920 nM	1590 nM	170 nM
